Data: US20250213572A1, “TYK2 INHIBITORS AND USES THEREOF” (Takeda Pharmaceutical Company Limited, priority 2022, published 2025)
≈ marks a conversion by molar mass, not a printed value. Read-outs that look alike come from different tables or passages of the source.

What was measured:
[1] = format: in vivo, human
Text: The observed accumulation ratio, between Day 1 and Day 28, in this study was consistent with the value obtained in the previous study in healthy volunteers.

[2] = system: psoriasis lesional skin markers (epidermal thickness, K16, psoriasis gene signatures); test: Study 102: skin punch biopsy PD markers (H&E, K16, RT-PCR, microarray); format: in vivo, human
Procedure: Skin PD markers are evaluated based on the change in epidermal thickness (via hematoxylin and eosin, or H&E staining) and the presence of the type I keratin K16 hyperproliferation marker.
Methods: mRNA from skin biopsies was isolated and assessed for targeted (RT-PCR) or global (microarray) gene expression. […] Numbers in parentheses are (probeset overlap of Nimbus PSTR and indicated dataset/Total # of probesets in dataset). Percent improvement is assessed as the mean % change (+/−SEM) in expression of the overlapping probesets toward baseline non-lesional expression (*** p<0.001 comparing treatment vs. placebo).

[3] = system: moderate to severe plaque psoriasis; test: Phase 2b study in plaque psoriasis (Example 4): efficacy; format: in vivo, human; settings: for Achieving PASI 75 at Week 12, number of patients: mITT
Text: Efficacy Analyses: The primary endpoint can be translated as a responder analysis, where a subject will be classified as responder if he or she achieves PASI-75 at Week 12. The comparison between groups for the primary endpoint will be done using a Cochran-Mantel-Haenszel (CMH), with prior treatment with biologics included as a stratification factor. The primary efficacy analysis will be performed on the intent-to-treat (ITT) analysis set, while the per-protocol (PP) analysis set will be used as a sensitivity analysis.
The secondary endpoints involving proportions of subjects will be analyzed using the same approach (CMH test) as described for the primary efficacy analysis, at each time point and based on the ITT analysis. The continuous secondary endpoints involving absolute change from baseline will be analyzed using a mixed effect model repeated measures method (MMRM) based on the ITT analysis set only. The model will include treatment, visit, treatment-by-visit interaction, and prior treatment with biologics as fixed effects, and baseline score as a covariate.

ALog D = format: physicochemical
JAK2 = JAK2 PBMC GMCSF pSTAT5; format: cell-based; settings: Homo sapiens
PDE4D = PDE4D (Homo sapiens, UniProt Q08499); test: PDE4D IC50; format: biochemical
PDE4D, sequence (Q08499 whole entry, species assumed): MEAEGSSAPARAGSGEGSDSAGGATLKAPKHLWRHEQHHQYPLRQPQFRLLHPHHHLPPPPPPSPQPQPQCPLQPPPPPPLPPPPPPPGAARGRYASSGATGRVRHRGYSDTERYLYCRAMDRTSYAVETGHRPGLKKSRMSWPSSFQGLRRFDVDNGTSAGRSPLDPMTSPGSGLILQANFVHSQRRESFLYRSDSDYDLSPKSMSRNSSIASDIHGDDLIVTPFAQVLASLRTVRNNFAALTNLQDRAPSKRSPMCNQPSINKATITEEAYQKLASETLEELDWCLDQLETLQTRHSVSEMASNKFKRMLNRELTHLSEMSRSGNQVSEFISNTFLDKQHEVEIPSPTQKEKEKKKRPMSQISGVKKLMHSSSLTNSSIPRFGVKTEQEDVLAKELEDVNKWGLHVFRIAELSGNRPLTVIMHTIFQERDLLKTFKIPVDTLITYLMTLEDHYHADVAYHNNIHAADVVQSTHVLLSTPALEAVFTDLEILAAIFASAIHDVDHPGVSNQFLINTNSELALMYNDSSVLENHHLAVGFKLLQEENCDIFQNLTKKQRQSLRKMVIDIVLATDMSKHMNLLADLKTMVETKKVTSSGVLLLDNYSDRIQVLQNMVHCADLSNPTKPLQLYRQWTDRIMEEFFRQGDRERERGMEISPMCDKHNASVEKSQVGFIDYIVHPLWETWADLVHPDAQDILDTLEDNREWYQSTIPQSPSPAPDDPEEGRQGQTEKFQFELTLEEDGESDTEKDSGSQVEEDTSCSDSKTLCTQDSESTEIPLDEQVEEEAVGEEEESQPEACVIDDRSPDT

hepatocytes [4] = test: Hepatocyte predicted clearance (Hep Clpred), dog; format: in vitro ADME; settings: in vitro
hepatocytes [5] = test: Hepatocyte predicted clearance (Hep Clpred), cyno; format: in vitro ADME; settings: in vitro
[6] = Plasma protein binding (PPB Fu), mouse; format: in vitro ADME; settings: in vitro
[7] = In vivo pharmacokinetics, mouse; settings: plasma
[8] = In vivo pharmacokinetics, rat; settings: plasma
[9] = In vivo pharmacokinetics, dog; settings: plasma
Kinetic solubility = format: physicochemical; settings: kinetic from dmso stock
CYP450 1A2 = CYP450 1A2 (Homo sapiens, UniProt P05177); test: CYP450 inhibition, 1A2; format: in vitro ADME
CYP450 1A2, sequence (P05177 whole entry): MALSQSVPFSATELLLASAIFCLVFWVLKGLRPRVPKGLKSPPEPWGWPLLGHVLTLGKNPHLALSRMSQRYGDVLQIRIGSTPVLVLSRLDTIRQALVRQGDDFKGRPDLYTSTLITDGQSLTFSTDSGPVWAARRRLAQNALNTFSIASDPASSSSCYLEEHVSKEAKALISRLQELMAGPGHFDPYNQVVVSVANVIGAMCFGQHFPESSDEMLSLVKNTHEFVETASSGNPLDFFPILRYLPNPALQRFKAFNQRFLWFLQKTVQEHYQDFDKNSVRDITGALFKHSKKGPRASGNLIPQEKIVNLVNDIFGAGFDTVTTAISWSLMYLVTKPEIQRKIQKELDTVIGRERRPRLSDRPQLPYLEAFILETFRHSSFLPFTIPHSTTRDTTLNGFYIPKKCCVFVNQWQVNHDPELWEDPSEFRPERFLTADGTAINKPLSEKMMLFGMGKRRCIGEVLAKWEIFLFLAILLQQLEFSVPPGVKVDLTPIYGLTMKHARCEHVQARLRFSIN

CYP450 2C9 = CYP450 2C9 (Homo sapiens, UniProt P11712); test: CYP450 inhibition, 2C9; format: in vitro ADME
CYP450 2C9, sequence (P11712 whole entry): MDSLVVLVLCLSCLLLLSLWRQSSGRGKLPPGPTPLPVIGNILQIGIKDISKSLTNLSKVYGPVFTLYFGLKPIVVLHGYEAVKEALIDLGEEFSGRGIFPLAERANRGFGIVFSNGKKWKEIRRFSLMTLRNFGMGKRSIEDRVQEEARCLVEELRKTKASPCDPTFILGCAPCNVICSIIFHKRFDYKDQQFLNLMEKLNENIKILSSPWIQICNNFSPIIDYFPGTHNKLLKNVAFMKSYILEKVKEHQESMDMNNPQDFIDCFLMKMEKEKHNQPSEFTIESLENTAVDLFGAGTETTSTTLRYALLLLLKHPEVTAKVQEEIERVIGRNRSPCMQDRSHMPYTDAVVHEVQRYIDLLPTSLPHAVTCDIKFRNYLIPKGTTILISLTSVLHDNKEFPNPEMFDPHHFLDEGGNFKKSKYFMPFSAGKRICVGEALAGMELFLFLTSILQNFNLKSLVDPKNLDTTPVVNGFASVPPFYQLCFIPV

CYP450 2D6 = CYP450 2D6 (Homo sapiens, UniProt P10635); test: CYP450 inhibition, 2D6; format: in vitro ADME
CYP450 2D6, sequence (P10635 whole entry): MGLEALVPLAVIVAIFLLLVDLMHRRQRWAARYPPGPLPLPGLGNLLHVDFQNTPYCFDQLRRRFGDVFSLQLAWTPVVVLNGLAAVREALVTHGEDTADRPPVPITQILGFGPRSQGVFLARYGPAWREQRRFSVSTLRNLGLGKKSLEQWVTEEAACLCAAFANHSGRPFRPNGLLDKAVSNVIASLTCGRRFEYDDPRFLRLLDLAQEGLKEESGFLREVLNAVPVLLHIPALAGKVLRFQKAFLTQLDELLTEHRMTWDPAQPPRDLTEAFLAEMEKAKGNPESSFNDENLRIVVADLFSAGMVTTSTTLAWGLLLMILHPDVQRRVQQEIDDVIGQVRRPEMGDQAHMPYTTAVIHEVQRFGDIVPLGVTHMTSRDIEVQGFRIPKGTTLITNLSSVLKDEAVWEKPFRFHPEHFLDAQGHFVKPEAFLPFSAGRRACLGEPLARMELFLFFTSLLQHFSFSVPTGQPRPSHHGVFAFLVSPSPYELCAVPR

PXR = PXR (Homo sapiens, UniProt O75469); test: PXR activation; format: cell-based; settings: at 30 μM
PXR, sequence (O75469 whole entry): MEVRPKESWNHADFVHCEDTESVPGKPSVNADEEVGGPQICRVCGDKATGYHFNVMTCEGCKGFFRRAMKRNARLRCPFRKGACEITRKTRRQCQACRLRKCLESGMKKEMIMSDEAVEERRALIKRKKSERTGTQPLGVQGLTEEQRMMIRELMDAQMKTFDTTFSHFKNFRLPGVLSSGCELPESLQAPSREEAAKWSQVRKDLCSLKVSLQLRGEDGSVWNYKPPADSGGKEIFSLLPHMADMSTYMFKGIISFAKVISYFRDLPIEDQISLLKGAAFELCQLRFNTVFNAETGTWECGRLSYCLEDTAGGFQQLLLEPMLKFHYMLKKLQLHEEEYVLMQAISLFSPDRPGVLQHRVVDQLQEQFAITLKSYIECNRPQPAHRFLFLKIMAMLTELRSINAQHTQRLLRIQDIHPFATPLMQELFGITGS

[10] = Pharmacokinetics in healthy volunteers (PO; QD), Study 101 and Study 104 (FIG. 11, FIG. 12); format: in vivo, human
CYP450 = CYP450 time-dependent inhibition and DDI perpetrator potential; format: in vitro ADME
hepatocytes [11] = test: In vitro metabolism in hepatocytes and elimination route; format: in vitro ADME
[12] = human, in vivo
[13] = human, in vivo; remark: listed apart in the source
clinical = settings: human, in vivo
[14] = Three placebo-controlled Phase I studies, pooled summary; settings: across the 3 Phase I studies

## CNc1cc(Nc2cccn(-c3ccccn3)c2=O)nc2c(C(=O)N[C@@H]3CC[C@H]3OC)cnn12 [Compound 1, N-((1R,2R)-2-methoxycyclobutyl)-7-(methylamino)-5-((2-oxo-2H-[1,2′-bipyridin]-3-yl)amino)pyrazolo[1,5-a]pyrimidine-3-carboxamide]
[1]; Cohorts 1-3, 5 to 30 mg once daily
  median time of mean peak plasma concentrations: 3 to 4 h
[1]; human, in vivo
  inter-subject variability, CV for AUC0-tau: 47-269%
  inter-subject variability, CV for Cmax: 55-111%
[2]; RT-PCR, 28 days treatment
  expression of psoriasis-related genes (KRT16, IL17A, IL17F, IL22) in skin biopsies: suggestive decreases in the expression of several psoriasis-related genes
[2]; microarray, 28 days treatment, p<0.001 compared to placebo
  improvement in the expression of skin transcriptomes previously associated with psoriasis in lesional skin: up to 50%
[2]; three dosing cohorts, four weeks, 17 patients evaluated
  epidermal thickness and K16 biomarker expression: reduced epidermal thickness and resolved expression of the K16 biomarker
[3]; 2 mg QD (n = 50)
  Achieving PASI 75 at Week 12, number of patients: 9 Number of patients
[3]; 2 mg QD versus placebo
  PASI 75 at Week 12, proportion difference: 12.3
[3]; 5 mg QD (n = 52)
  Achieving PASI 75 at Week 12, number of patients: 23 Number of patients
[3]; 5 mg QD versus placebo
  PASI 75 at Week 12, proportion difference: 38.5
[3]; 15 mg QD (n = 53)
  Achieving PASI 75 at Week 12, number of patients: 36 Number of patients
[3]; 15 mg QD versus placebo
  PASI 75 at Week 12, proportion difference: 61.9
[3]; 30 mg QD (n = 52)
  Achieving PASI 75 at Week 12, number of patients: 35 Number of patients
[3]; 30 mg QD versus placebo
  PASI 75 at Week 12, proportion difference: 61.5
[3]; 30 mg QD, week 12
  patients who achieved clear skin: 33%
[3]; FIG. 15
  fractions of patients achieving PGA 1 and PGA 0 at Week 12: both increased with increasing dose of Compound 1
[3]; in vivo
  primary endpoint (PASI 75 response at week 12): achieved with Compound 1 at doses ≥5 mg
ALog D
  ALog D: 2.0
JAK2
  IC50: > 50 µM
PDE4D
  IC50: > 10 µM
Hepatocytes [4]
  Hep Clpred: 15 mL/min/kg
Hepatocytes [5]
  Hep Clpred: 11 mL/min/kg
[6]
  fraction unbound: 0.08
[7]; mouse
  half-life: 2 h
[7]; 1 mg/kg, Mouse, 1 mpk IV dose, read-out: Clp, obs
  clearance: 16 mL/min/kg
[7]; 1 mg/kg, Mouse, 1 mpk IV dose, read-out: Vss
  Vd: 1.3 L/kg
[7]; 30 mg/kg, Mouse, PO 30 mpk
  Tmax: 0.4 h
  bioavailability: 81%
[8]; 1 mg/kg, Rat, 1 mpk IV dose, read-out: Clp, obs
  clearance: 26 mL/min/kg
[8]; 1 mg/kg, Rat, 1 mpk IV dose, read-out: Vss
  Vd: 1.6 L/kg
[8]; 10 mg/kg, Rat, PO 10 mpk
  Tmax: 1.7 h
  bioavailability: 63%
[8]; rat
  half-life: 1.2 h
[9]; dog
  half-life: 5.3 h
[9]; 1 mg/kg, Dog, 1 mpk IV dose, read-out: Clp, obs
  clearance: 14 mL/min/kg
[9]; 1 mg/kg, Dog, 1 mpk IV dose, read-out: Vss
  Vd: 4 L/kg
[9]; 10 mg/kg, Dog, PO 10 mpk
  Tmax: 0.83 h
  bioavailability: 47%
Kinetic solubility
  solubility kinetic: 32 µM (≈ 14.7 µg/mL)
CYP450 1A2
  IC50: > 30 µM
CYP450 2C9
  IC50: > 30 µM
CYP450 2D6
  IC50: > 30 µM
PXR
  PXR activation: 26 % of rifampicin control
[10]; 5-75 mg
  dose proportionality of Cmax and AUC0-24: increased in an approximately dose-proportional manner
[10]; human, plasma, po, across doses, read-out: Oral T1/2
  half-life: 16.5 to 30.7 h
[10]; human, plasma, day 1 and day 14, PO QD, read-out: median Tmax of peak mean plasma concentrations
  Tmax: 4 to 6 h
CYP450
  CYP450 time-dependent inhibition: no time-dependent inhibition
  DDI perpetrator potential: low at clinically relevant exposures
Hepatocytes [11]
  route of elimination: primarily via oxidative metabolism by multiple CYP450 enzymes followed by conjugation
Hepatocytes [11]; hepatocytes
  overall metabolism: low overall metabolism
[12]
  overall safety and tolerability: generally safe and well tolerated
[13]
  AUC % extrapolated: 9.9-30.9%
  fraction of the dose excreted in urine (FE %): 0.37-1.89 % of dose
clinical
  CL renal: 1 to 5 mL/min
  Tmax: 3 to 5 h
clinical; 75 mg
  AUC(0-inf): 589 to 8370 ng·h/mL
  Cmax: 21.6 to 237 ng/mL
clinical; 100 mg
  AUC(0-inf): 10700 ng·h/mL
clinical; 150 mg
  AUC(0-inf): 12200 ng·h/mL
clinical; 200 mg
  Cmax: 232 to 250 ng/mL
[14]
  serious adverse events (SAEs) or deaths: No serious adverse events (SAEs) or deaths were observed
5 mg, 3/8
  subjects with TEAEs: 38%
10 mg, 4/7
  subjects with TEAEs: 57%
30 mg, 4/6
  subjects with TEAEs: 67%
30 mg, led to discontinuation of treatment
  severe adverse events: one severe (Grade 3) adverse event of neutropenia
5, 10 or 30 mg daily, 28 days
  deaths or serious AEs: no deaths or serious AEs
  overall safety and tolerability: generally safe and well tolerated
All doses
  acneiform dermatitis, papular rash, aphthous ulcer: no events of acneiform dermatitis, papular rash, or aphthous ulcer
  vital signs, physical exam, ECG: no clinically significant changes in vital signs, physical exam, or ECG
